Measurements as given in ChEMBL document CHEMBL3832068, “DailyMed|setid=9ddd37f9-299e-4c98-91ed-deeb72c63b00 | GRIS-PEG - griseofulvin tablet, film coated|State of Florida DOH Central Pharmacy”.

Key:
[1] = (§1) Mean pharmacokinetic parameters for Griseofulvin following single dose administration of unaltered 250 mg ultramicrocrystalline Griseofulvin tablets, with or without applesauce, to 24 healthy volunteers; format: ADME, organism-based; set-up: dose 250 mg, route oral; conditions: human, in vivo, dietary status Fasting, dosed compound id 34, dosed compound name GRISEOFULVIN, gender male and female, regimen Single dose, tissue Plasma
Homo sapiens = experiment: as §1; format: ADME, organism-based; set-up: dose 250 mg, route oral; conditions: in vivo, po, dietary status Fasting, dosed compound id 34, dosed compound name GRISEOFULVIN, gender male and female, regimen Single dose, tissue Plasma

## COC1=CC(=O)C[C@@H](C)[C@]12Oc1c(Cl)c(OC)cc(OC)c1C2=O [GRISEOFULVIN]
[1]; po, 250 mg
  AUC: 8620 ng·h/mL
  Cmax: 601 ng/mL
[1]; dose 250 mg, route oral
  Tmax: 4.04 h
Homo sapiens; dose 250 mg
  Tmax: 3.08 h
Homo sapiens
  AUC: 9023.71 ng·h/mL
  Cmax: 672.61 ng/mL
